Test results as given in publication PMC10167355, “Optimized spirooxindole-pyrazole hybrids targeting the p53-MDM2 interplay induce apoptosis and synergize with doxorubicin in A549 cells” (Scientific Reports, 2023).
“Also recorded” adds a separate entry of the source.

Experiments:
MDM2 = experiment: Western blot of MDM2 level in A549 cells; assay type: cell-based, human
Method: (§1) A549 cells were treated with different concentrations of the molecules as indicated. Cell extracts were prepared as described. Ten-20 μg of total proteins were resolved on 4–15% Mini protean TGX precast gels (Bio-Rad) and transferred to nitrocellulose membrane using 1704158 Trans-Blot Turbo Mini NC Transfer Packs (Bio-Rad) in a Trans-Blot Turbo apparatus (Bio-Rad). Membranes were blocked with 5% non-fat dry milk in 0.1% Tween-20 in PBS for 1 h, then incubated for 1 h at room temperature or overnight at 4 °C with the appropriate primary antibody. The following antibodies were employed: anti-p53 (DO-1, sc-126, Santa Cruz Biotechnology, 1:20.000), anti-p21 (2946, Cell Signaling, 1:2000), anti-MDM2 (SMP14, sc-965, Santa Cruz Biotechnology, 1:200), anti β-actin (AC-74, Sigma-Aldrich, 1:30.000); secondary anti-mouse IgG peroxidase conjugate (A9044, Sigma–Aldrich, 1:10.000) and secondary anti-rabbit peroxidase conjugate (A9169, Sigma-Aldrich, 1: 12.000). Detection was carried out with ECL FAST PICO (ECL-1002, Immunological Sciences, Roma, Italy). Chemiluminescence was analysed by Alliance LD, UVITEC Cambridge (Cambridge, UK).

A549 cells = experiment: Annexin-V-FITC / propidium iodide apoptosis assay; assay type: cell-based, human; settings: A549, compounds at their specific IC75s, three days
Method: The induction of apoptosis was evaluated in A549 cells characterized by wild-type p53 and MDM2 proteins. They were plated at the opportune concentration (see above) into 25 cm^2 flasks in 10 mL complete medium. After 6–8 h the compounds were added at their specific IC75s, as previously calculated by the MTT assay.
All floating and adherent cells were harvested three days later, washed with normal saline buffer, and apoptosis determined by double staining with Annexin-V-FITC and propidium iodide (PI) (rh AnnexinV/FITC Kit, Bender MedSystem GmbH, Vienna, Austria). Briefly, 0.5 × 10^6 cells were resuspended in binding buffer 1× and stained with 5 μL of Annexin-V-FITC. After 10 min incubation 10 μL of PI were added and samples incubated for 5 min. Samples were immediately analyzed using a Flow Cytometer (FACScan, BD Biosciences, Milano, Italy) with dedicated software.

p21 = experiment: Western blot of p21 level in A549 cells; assay type: cell-based, human; settings: A549
Method: as §1

activated PBL = experiment: MTT assay on normal PBL activated with PHA and recombinant IL-2; assay type: cell-based; settings: Homo sapiens, mean ± SD of 4–6 IC50 values
Method: (§2) Human tumor cell lines A2780 [ovary, adenocarcinoma, accession number HTL98008, obtained from Interlab Cell Line Collection (ICLC), Genova, Italy], A549 (lung, carcinoma, HTL03001, ICLC), MDA-MB-453 (breast, carcinoma, HTL01013, ICLC), and HepG2 (liver, carcinoma, HB-8065, American Type Culture Collection, Rockville, MA, USA ) were plated at 1.4 × 10^4/ml, 0.65 × 10^4/mL, 4.7 × 10^4/mL, and 1.0 × 10^4/mL, respectively, in 180 μL complete medium (RPMI 1640 for A2780 and A549 and DMEM for MDA-MB-453 and HepG2) into flat-bottomed 96-well microtiter plates. After 6–8 h cells were treated with 20 μL containing five 1:10 fold concentrations of our compounds diluted in FCS containing 3% DMSO. As normal non-cancer cell targets we used peripheral blood lymphocytes obtained from three healthy volunteers, isolated by gradient centrifugation (Lympholyte-H Cell Separation Media, EuroClone, Pero, MI, Italy) and stimulated with 1% phytohemagglutinin and 100 U/ml recombinant IL-2. One week after stimulation cells were ready for use at 15,000/well.
In both cases, after 72 h treatment, the MTT assay was applied as described elsewhere. […] IC100 and IC75 were extrapolated from the mean concentration–response curves.

p53 = experiment: Western blot of p53 level in A549 cells; assay type: cell-based, human
Method: as §1

[1] = test system: MDA-MB-453 (breast; mutant p53); experiment: MTT antiproliferative assay, MDA-MB-453; assay type: cell-based; settings: Homo sapiens; MDA-MB-453, MTT, 72 h treatment, mean ± SD of 5–6 data
Method: as §2
In both cases, after 72 h treatment, the MTT assay was applied as described elsewhere. The IC50 values were calculated from the analysis of single concentration–response curves, each final value is the mean of 5–6 experiments. IC100 and IC75 were extrapolated from the mean concentration–response curves.

[2] = A549, drug concentration equivalent to IC75 (30 µM), fold over mock
[3] = A549, 0.2 µM derivative alone or 14 µM doxorubicin alone
[4] = A549, 0.2 µM derivative plus 14 µM doxorubicin

Cc1c(C(=O)C2C(c3ccc(C(F)(F)F)cc3)C3CSCN3C23C(=O)Nc2ccccc23)cnn1-c1ccccc1 (stereo not drawn) [8k, 6'-(5-Methyl-1-phenyl-1H-pyrazole-4-carbonyl)-7'-(4-(trifluoromethyl)phenyl)-1',6',7',7a'-tetrahydro-3'H-spiro[indoline-3,5'-pyrrolo[1,2-c]thiazol]-2-one]
MDM2 modulation, dose–response (MDM2; A549, 24 h, 0.01, 0.1, 1, 10 µM): induced MDM2 down regulation at any concentration; also recorded: dose-dependent down regulation of MDM2
MDM2 level (MDM2; [2]): downmodulated MDM2; also recorded: clear down modulation; also recorded: down regulation of MDM2
MDM2 level, single agent (MDM2; [3]): slight but not significant MDM2 increase
MDM2 level, combined treatment compared to doxorubicin alone (MDM2; [4]): no further increases
apoptotic activity (A549 cells): highly significant apoptotic activity; also recorded: considerable high level of apoptosis
p21 level, single agent (p21; 0.2 µM derivative alone or 14 µM doxorubicin alone): did not increase
p21 level, combined treatment compared to doxorubicin alone (p21; 0.2 µM derivative plus 14 µM doxorubicin): no further increases
IC50 (activated PBL; PBL A): 49.8 ± 3.2 µM
IC50 (activated PBL; PBL B): 55.3 ± 1.4 µM
IC50 (activated PBL; PBL C): 50.9 ± 1.2 µM
p53 level (p53; [2]): did not induce any changes; also recorded: did not induce p53
p53 level, single agent (p53; [3]): did not increase
p53 level, combined treatment compared to doxorubicin alone (p53; [4]): no further increases
melting point: 138 to 139 °C
IC50 [1]: 21.4 µM
